This is an account of results in the Bradley open melting point set (2014).

Structures are written as SMILES. Structures can show the parent of a compound that is named as a salt.

Broadly, the melting point is the temperature, or range, at which the solid turns liquid. On to `O=C1c2ccccc2C(=O)N1CCCCBr` [N-(4-bromobutyl)phthalimide], for which the melting point stood at 79 °C. Next, `C(=N\c1ccccc1)/c1ccccc1` [N-benzylideneaniline]: 53 °C; `NS(=O)(=O)c1cc2c(cc1Cl)NCNS2(=O)=O` [hydrochlorothiazide]: 270 °C; `O=C(O)C(O)C(O)C(=O)O` (stereo not given) [Tartaric acid]: 210 °C. Next, `COC(=O)c1sccc1O` [methyl 3-hydroxythiophene-2-carboxylate]: 46 °C; `Oc1ccc(Cl)cc1-c1ccno1` [4-chloro-2-(5-isoxazolyl)phenol]: 202 °C. In turn, `CCCC(=O)Nc1ccc(OCC(O)CNC(C)C)c(C(C)=O)c1` (stereo not given) [acebutolol] yielded a melting point of 123 °C. `C=C(C)c1ccc(C(=C)C)cc1` [p-diisopropenylbenzene] showed a melting point of 66 °C. On to `NS(=O)(=O)Cc1noc2ccccc12` [Zonisamide], for which the melting point was 162 °C. Next, `COc1cc(C=O)ccc1O` [vanillin]: 82 °C. `CN(C)CC(=O)O` [Dimethylglycine] had a melting point of 186 °C. Turning to `CCCC(=O)Nc1ccc(OCC(O)CNC(C)C)c(C(C)=O)c1` (stereo not given) [Acebutolol], the melting point was 121 °C. The same measure for `CCC(C)CCC(C)O` (stereo not given) [5-methyl-2-heptanol]: -120 °C; for `N#CCc1c[nH]cn1` [(4-imidazolyl)acetonitrile]: 137 °C; for `CC(=O)Nc1ccc(O)cc1` [Acetaminophen]: 170 °C. Next, `Clc1ccc(-c2ccccc2)cc1` [PCB-3]: 78 °C; `COc1cc(/C=C/CO)ccc1O` [coniferyl alcohol]: 76 °C. The same measure for `Brc1cccc(I)c1` [m-bromoiodobenzene]: -9 °C; for `CCn1cc(C(=O)O)c(=O)c2ccc(C)nc21` [Nalidixic Acid]: 230 °C; for `CCN(CC)CCOC(=O)C(O)(c1ccccc1)c1ccccc1` [benactyzin]: 51 °C. In turn, `[O-][n+]1ccc2ccc(Br)cc2c1` [7-bromoisoquinoline n-oxide] had a melting point of 180 °C.

`O=C(Nc1cccc(OC(=O)c2ccccc2)c1)c1ccccc1` [3-(benzoylamino)phenyl benzoate] showed a melting point of 153 °C. Regarding `CCc1oc2ccccc2c1C(=O)c1ccc(O)cc1` [benzarone], the melting point came to 124 °C. Next, `O=C5\C=C4/C(C3CCC2(C(CCC2OC(=O)Cc1ccccc1)C3CC4)C)(C)CC5` (stereo not given) [Testosterone phenylacetate]: 129 °C. Next, `CC(=O)[C@H]1CC[C@H]2[C@@H]3CCC4=CC(=O)CC[C@]4(C)[C@H]3CC[C@]12C` [Progesterone]: 130 °C; `CC(C)Cc1ccc(C(C)C(=O)O)cc1` (stereo not given) [ibuprofen]: 76 °C. In the case of `COc1cc(C(=O)O)cc(O)c1OC` [5-hydroxy-3,4-dimethoxybenzoic acid], the melting point stood at 196 °C. Take `Cc1cc(NS(=O)(=O)c2ccc(N)cc2)nc(C)n1` [sulfisomidine]: the melting point was found to be 243 °C. Next, `CCCCCCCCCCCCCCCCCCCCCCCCCC` [N-hexacosane]: 57 °C. As to `Nc1cccc(F)c1C(=O)O` [2-amino-6-fluorobenzoic acid], the melting point was determined as 166 °C. Consider `COC(=O)c1sccc1Cl` [methyl 3-chlorothiophene-2-carboxylate], for which the melting point was 38 °C. On to `Fc1ccccc1` [Fluorobenzene], for which the melting point was -40 °C.

In turn, `Cc1cccc(N)n1` [2-amino-6-methylpyridine] had a melting point of 43 °C. Next, `CCCC#N` [butyronitrile]: -112 °C; `COC1=CC(=O)C[C@@H](C)[C@]12Oc1c(Cl)c(OC)cc(OC)c1C2=O` [griseofulvin]: 219 °C; `C=C(C)C(=C)C` [2,3-dimethyl-1,3-butadiene]: -76 °C. Take `CC(=O)OC1CCC2(C)C(CCC3C2CCC2(C)C3CCC2(O)CCc2ccccc2)C1` (stereo not given) [17-hydroxy-21-phenylpregnan-3-yl acetate]: the melting point was 138 °C. The same measure for `Cc1ccc(C)c2c1C(=O)NC2=O` [4,7-dimethyl-1H-isoindole-1,3(2H)-dione]: 224 °C; for `Cc1cccc2cc[nH]c12` [7-methylindole]: 84 °C; for `COc1ccc(NC(=O)N(C)C)cc1Cl` [metoxuron]: 127 °C. The same measure for `Cc1ccc2cc([N+](=O)[O-])ccc2n1` [2-methyl-6-nitroquinoline]: 164 °C; for `O=C(O)COc1ccccc1[N+](=O)[O-]` [2-nitrophenoxyacetic acid]: 158 °C; for `CCCCc1ccccc1` [N-butylbenzene]: -88 °C. `NS(=O)(=O)c1ccccc1` [benzenesulfonamide] yielded a melting point of 153 °C. The same measure for `Cc1cccc(O)c1` [M-Cresol]: 11.8 °C; for `CCC(=O)C(C[C@H](C)N(C)C)(c1ccccc1)c1ccccc1` [methadone]: 102 °C.

For `COC(=O)c1ccc(CC#N)cc1` [methyl_p-cyanomethyl_benzoate], the melting point came to 64 °C. `CCOC(=O)C12C(c3ccccc3O[P+]1([O-])OCC)C1(C(=O)OCC)C2c2ccccc2O[P+]1([O-])OCC` (stereo not given) yielded a melting point of 218 °C. Next, `CN(C)c1ccc(C=O)cc1` [4-(Dimethylamino)benzaldehyde]: 74 °C; `COC(=O)/C=C/C(=O)OC` [dimethyl fumarate]: 104 °C.

As to `CC(C)(C)OC(=O)N1CCCCC1=O` [1-boc-2-piperidone], the melting point was determined as 36 °C. As for `CS(=O)c1ccc(B(O)O)cc1` (stereo not given) [4-(methylsulfinyl)benzeneboronic acid], the melting point worked out at 170 °C. For the compound `CC(=O)Oc1cccc(C(=O)O)c1` [m-acetoxy_benzoic_acid], the melting point stood at 133 °C. Next, `O=C(O)C(Br)(Br)Br` [tribromoacetic acid]: 132 °C. Regarding `O=[N+]([O-])c1ccc(N/N=C2/Cc3c2ccc2ccccc32)c([N+](=O)[O-])c1`, the melting point amounted to 275 °C. The same measure for `OB(O)c1ccccc1F` [2-fluorobenzeneboronic acid]: 104 °C; for `Nc1cccc(Cl)c1` [3-chloroaniline]: -10 °C; for `CC12CCC(=O)C=C1CCC1C2C(O)CC2(C)C1CCC2(O)C(=O)CO` (stereo not given) [hydrocortisone]: 223 °C. For the compound `COc1ccc(C=O)c(OC)c1` [2,4-dimethoxybenzaldehyde], the melting point came to 72 °C. Compound `CCC1(CC)C(=O)NCC(C)C1=O` (stereo not given) [methyprylon] displayed a melting point of 75.5 °C.

For `OB(O)c1c(Cl)cccc1Cl` [2,6-dichlorobenzeneboronic acid], the melting point is 152 °C. `c1cnccn1` [Pyrazine] yielded a melting point of 55 °C. The same measure for `CCCCCCCC(C)O` (stereo not given) [2-nonanol]: -35 °C. `O=c1c(-c2ccccc2)c1-c1ccccc1` [2,3-diphenyl-2-cyclopropen-1-one] showed a melting point of 120 °C.

Consider `CCCCc1ccccc1` [Butylbenzene], for which the melting point was -88 °C.
